Consider three compounds from patent US5468769A, “Paclitaxel derivatives” (Abbott Laboratories, priority 1993, dated 1995).

One assay deals with HT-29. Description: In vitro tumor cell cytotoxicity (MTT colorimetric growth inhibition). Type of assay: cell-based. The settings on record: Homo sapiens. On the procedure:
(§1) The compounds of the present invention were tested for in vitro cytotoxic activity against the tumor lines A549 […], HT-29 […], B16F10 (mouse melanoma) and P-388 (mouse leukemia). Concentrations of 50% growth inhibition (IC50 's) were measured in a colorimetric assay for cytotoxic activity against cultured cells according to the protocol described below:
(§2) A three-day microtiter assay was used to measure the growth inhibition of cultured cells exposed to a range of drug concentrations. Metabolic activity, and thus the continued survival of cells exposed to the test compounds, was measured by the cells' ability to reduce the tetrazolium dye, MTT (3-(4,5-dimethyl-thiazol-2-yl-2,5-diphenyltetrazolium bromide) to a quantifiable colored end product, which absorbs at 570 nm in the visible spectrum.
(§3) Test compounds were dissolved in dimethyl sulfoxide (DMSO) and diluted, first with Earle's Balanced Salt Solution followed by culture medium, to twice the highest concentration of compound to be tested. From this concentrated stock, twofold serial dilutions were prepared in 96-well microtiter trays, each well containing twice the desired final concentration of compound. Each concentration was tested in triplicate and compared to triplicate drug-free controls.
(§4) The cells were grown in the same medium used for diluting the compounds and then harvested using trypsinization. This involved removing the medium by aspiration; rinsing the cell monolayer twice with Earle's Balanced Salt Solution; adding trypsin (0.05%)/EDTA (0.53 mM; for each 25 cm^2, approximately 0.2 mL), tilting to cover the monolayer, and then withdrawing trypsin leaving only a thin film of solution; incubating at room temperature until the cell monolayers detached (as determined by visual and/or microscopic observation); adding medium containing fetal calf serum to stop the action of the trypsin and resuspend the cells; triturating to aid dissociation of cell clumps; and determining the number of cells per milliliter by electronic cell counter (e.g. Coulter Counter) or by mixing an aliquot of cell suspension with Trypan Blue (0.4% in normal saline) and counting the viable cells using a hemacytometer.
(§5) After harvesting and determination of viable cell counts, cell density was adjusted to 25,000 cells/mL. Inoculum (0.1 mL) containing the cells was then added to each well for a final concentration of 2,500 cells per well. Addition of the inoculum diluted the test compounds to the desired final concentration.
(§6) Microtiter trays were then incubated for three days at 36 ° C. in a humidified atmosphere containing 5% carbon dioxide. After three days, 20 microtiters of 5 mg/mL MTT in phosphate-buffered saline solution were added to each well. Trays were returned to the incubator for two to four hours to allow the surviving cells to reduce the dye. Medium and unreduced dye were removed by aspiration. DMSO was added to each well to dissolve the water-insoluble, colored end product of the dye reduction so that it could be measured spectrophotometrically at 570 nm. The IC50 was determined as the concentration of compound tested required to reduce the absorbance at 570 nm to 50% of non-drug treated control values.

The test system of another assay is A549. The description is as above. Type of assay: cell-based. The settings on record: Homo sapiens. Here is the method:
as §1, §2, §3, §4, §5, §6

The next assay concerns P388. The assay is described as above. The settings on record: P388, 72 h. Type of assay: cell-based, mouse. Here is the method:
as §1, §2, §3, §4, §5, §6

A further assay concerns B16F10. Described as above. Type of assay: cell-based, mouse. The settings on record: B16-F10, 72 h. On the procedure:
as §1, §2, §3, §4, §5, §6

The subject of assay [1] is advanced breast and ovarian cancers. The following applies: cited from earlier work.
Assay [2] relates to a number of other tumor types. The settings on record: preliminary investigations; cited from earlier work.

≈ marks a conversion by molar mass, not a printed value. Where two headings read alike, the source gives them in different places.

For `CC(=O)O[C@H]1C(=O)[C@@]2(C)[C@H]([C@H](OC(=O)c3ccccc3)[C@]3(O)C[C@H](OC(=O)[C@H](O)[C@@H](NC(=O)c4ccccc4)c4ccccc4)C(C)=C1C3(C)C)[C@]1(OC(C)=O)CO[C@@H]1C[C@@H]2O` [Paclitaxol, Paclitaxel], the IC50 in the assay on HT-29 (HT-29, 72 h) is 2.5 ng/mL (≈ 0.00293 µM); in the assay with A549 (A549, 72 h), 3.4 ng/mL (≈ 0.00398 µM); in the assay with P388 (Mus musculus), 9.6 ng/mL (≈ 0.0112 µM); in the assay with B16F10 (Mus musculus), 3.1 ng/mL (≈ 0.00363 µM). In addition, the “effectiveness in clinical trials” value in assay [1] was “effective against advanced breast and ovarian cancers”. The “activity against other tumor types” value in assay [2] is reported as “promising activity against a number of other tumor types”.
`CC(=O)O[C@@H]1C2=C(C)[C@@H](OC(=O)[C@H](O)[C@@H](NC(=O)OC(C)(C)C)c3ccccc3)C[C@@](O)([C@@H](OC(=O)c3ccccc3)[C@@H]3[C@]4(OC(C)=O)CO[C@@H]4C[C@H](C)[C@@]13C=O)C2(C)C` [Example 3, 8-tert-Butyloxycarbonylamino-α-hydroxybenzenepropanoic acid 4,9-bis(acetyloxy)-2-benzoyloxy-8-formyl-1.2.3.4.5.6.7.8.10.13.14-undecahydro-1-hydroxy-7.14.14.17-tetramethyl-1.10-methano-20H-cyclonona[2.3]benz[1.2.b]oxet-12-yl ester]: the IC50 in the assay on HT-29 (72 h, HT-29, three-day microtiter assay, MTT, 570 nm, read-out: IC50) was 5.4 ng/mL (≈ 0.00648 µM); with A549 (72 h, A549, three-day microtiter assay, MTT, 570 nm, read-out: IC50) it was 9.8 ng/mL (≈ 0.0118 µM); in the assay on P388 (P-388 (mouse leukemia), three-day microtiter assay, MTT, 570 nm, read-out: IC50), 8.3 ng/mL (≈ 0.00995 µM); with B16F10 (B16F10 (mouse melanoma), three-day microtiter assay, MTT, 570 nm, read-out: IC50), 4.6 ng/mL (≈ 0.00552 µM).
Regarding `CC(=O)O[C@@H]1C2=C(C)[C@@H](OC(=O)[C@H](O)[C@@H](NC(=O)c3ccccc3)c3ccccc3)C[C@@](O)([C@@H](OC(=O)c3ccccc3)[C@@H]3[C@]4(OC(C)=O)CO[C@@H]4C[C@H](C)[C@@]13C=O)C2(C)C` [Example 4, β-Benzoylamino-α-hydroxybenzenepropanoic acid 4,9-bis(acetyloxy)-2-benzoyloxy-8-formyl-1.2.3.4.5.6.7.8.10.13.14-undecahydro-1-hydroxy-7.14.14.17-tetramethyl-1.10-m,ethano-20H-cyclonona[2.3]benz[1.2-b]oxet-12-yl ester], the IC50 with HT-29 (HT-29, 72 h) was 76 ng/mL (≈ 0.0907 µM); with A549 (A549, 72 h) it was 17 ng/mL (≈ 0.0203 µM); in the assay with P388 (Mus musculus), 32 ng/mL (≈ 0.0382 µM); in the assay on B16F10 (Mus musculus), 45 ng/mL (≈ 0.0537 µM).
